Test system: HCV replicon
Experiment: HCV replicon replication assay (NPT level by captured ELISA)
Assay type: cell-based
Settings: Hepatitis C virus, 72 h; Huh-7 HCV replicon-containing cells, three days incubation; read-out: Activity (inhibition of HCV replicon replication)
Method: Compounds claimed herein are tested for the ability to inhibit viral replication of the Hepatitis C replicon in cultured cells in which the HCV replicon construct has been incorporated. The HCV replicon system was described by Bartenschlager, et. al (Science, 285, pp. 110-113 (1999)). The replicon system is predictive of in vivo anti-HCV activity; compounds that are active in humans uniformly evidence activity in the replicon assay.
In this assay HCV replicon containing cells are treated with different concentrations of the test compound to ascertain the ability of the test compound to suppress replication of the HCV replicon. As a positive control, HCV replicon-containing cells are treated with different concentrations of interferon alpha, a known inhibitor of HCV replication. The replicon assay system includes Neomycin Phosphotransferase (NPT) as a component of the replicon itself in order to detect the transcription of replicon gene products in the host cell. Cells in which the HCV replicon is actively replicating have high levels of NPT; the level of NPT is proportional to HCV replication. […] The NPT level of each sample is measured using a captured ELISA.
A protocol for testing compounds for the ability to inhibit viral replication of the Hepatitis C replicon cultured cells in which the replicon construct has been incorporated, follows.
The HCV replicon contains, 5′-3′, the HCV-IRES, the neomycin phosphotransferase (neo) gene, the IRES of encephalomyocarditis virus, which directs translation of HCV sequences NS3 to NS5B, and the 3′-NTR. The sequence of the HCV replicon has been deposited in GenBank (Accession no. AJ242652).
The replicon is transfected into Huh-7 cells using standard methods such as electroporation.
The equipment and materials include, but are not limited to, Huh-7 HCV replicon-containing cells, maintenance media (DMEM (Dulbecco's modified Eagle media) supplemented with 10% FBS, L-glutamine, non-essential amino acids, penicillin (100 units/ml), streptomycin (100 micrograms/ml), and 500 micrograms/ml of Geneticin (G418), screening media (DMEM supplemented with 10% FBS, L-glutamine, non-essential amino acids, penicillin (100 units/ml) and streptomycin (100 micrograms/ml)), 96 well tissue culture plates (flat bottom), 96 well plates (U bottom for drug dilution), Interferon alpha for positive control, fixation reagent (such as methanol: acetone), primary antibody (rabbit anti-NPTII), secondary antibody: Eu—N1 1, and enhancement solution.
HCV replicon-containing cells are rinsed with once PBS once; 2 mls of trypsin are then added. Cells are incubated at 37° C. in a 5% CO2 incubator for 3-5 minutes. 10 mls of complete medium is added to stop the reaction. Cells are blown gently, put into a 15 ml tube, and spun at 1200 rpm for four minutes. The trypsin/medium solution is removed and 5 mls of medium (500 ml DMEM (high glucose)) from BRL catalog #12430-054; 50 mls 10% FBS, 5% Geneticin G418 (50 mg/ml, BRL catalog #10131-035), 5 ml MEM non-essential amino acids (100×BRL #11140-050) and 5 ml pen-strep (BRL #15140-148) is added. The cells and media are mixed carefully
Cells are plated with screening medium (500 ml DMEM (BRL #21063-029), 50 ml FBS (BRL #10082-147) and 5 ml MEM non-essential amino acid (BRL #11140-050) at 6000-7500 cells/100 μl/well of 96 well plate (6-7.5×10^5 cells/10 ml/plate). Plates are placed into 37° C. 5% CO2 incubator overnight.
The following morning, drugs (test compounds or interferon alpha) are diluted in 96 well U bottom plates with media or DMSO/media, depending on the final concentration chosen for screening. Generally for 6 concentrations of each test compounds ranging from 10 micromolar to 0.03 micromolar are applied. 100 μl of the test compound dilution is placed in wells of the 96 well plate containing the HCV replicon cells. Media without drug is added to some wells as a negative controls. DMSO is known to affect cell growth. […]

Compound | EC50 [µM]
CCCCCCCCOc1cc(Nc2nc(-c3cnc(OC)nc3)c(F)s2)ccc1C(F)(F)F [Cmp 88, 5-fluoro-4-(2-methoxypyrimidin-5-yl)-N-(3-(octyloxy)-4-(trifluoromethyl)phenyl)thiazol-2-amine] | < 1
CN(C)c1ccc(CCCCOc2ccc(Nc3nc(-c4cccnc4)cs3)cc2C(F)(F)F)cc1 [Cmp 89, N-(4-(4-(4-(dimethylamino)phenyl)butoxy)-3-(trifluoromethyl)phenyl)-4-(pyridin-3-yl)thiazol-2-amine] | < 1
Fc1sc(Nc2ccc(OCCCCc3cccs3)c(C(F)(F)F)c2)nc1-c1cccnc1 [Cmp 90, 5-fluoro-4-(pyridin-3-yl)-N-(4-(4-(thiophen-2-yl)butoxy)-3-(trifluoromethyl)phenyl)thiazol-2-amine] | < 1
Cc1cccc(OCCCc2ccc(Nc3nc(-c4cccnc4)cs3)cc2C(F)(F)F)c1 [Cmp 91, 4-(pyridin-3-yl)-N-(4-(3-(m-tolyloxy)propyl)-3-(trifluoromethyl)phenyl)thiazol-2-amine] | < 1
Cc1cccc(OCCCc2ccc(Nc3nc(-c4cccnc4)c(F)s3)cc2C(F)(F)F)c1 [Cmp 92, 5-fluoro-4-(pyridin-3-yl)-N-(4-(3-(m-tolyloxy)propyl)-3-(trifluoromethyl)phenyl)thiazol-2-amine] | < 1
CCCCCCCc1nc2cc(Nc3nc(-c4cccnc4)c(F)s3)ccc2o1 [Cmp 93, N-(5-fluoro-4-(pyridin-3-yl)thiazol-2-yl)-2-heptylbenzo[d]oxazol-5-amine] | < 1
CCCCCCCCc1c(F)cc(Nc2nc(-c3cccnc3)cs2)cc1F [Cmp 94, N-(3,5-difluoro-4-octylphenyl)-4-(pyridin-3-yl)thiazol-2-amine] | < 1
COc1ncc(-c2nc(Nc3ccc(Oc4ccccc4)c(C(F)(F)F)c3)sc2F)cn1 [Cmp 95, 5-fluoro-4-(2-methoxypyrimidin-5-yl)-N-(4-phenoxy-3-(trifluoromethyl)phenyl)thiazol-2-amine] | 1 to 10
COc1ncc(-c2nc(Nc3ccc(Oc4ccc(C#N)cc4)c(C(F)(F)F)c3)sc2F)cn1 [Cmp 96, 4-(4-(5-fluoro-4-(2-methoxypyrimidin-5-yl)thiazol-2-ylamino)-2-(trifluoromethyl)phenoxy)benzonitrile] | < 1
Fc1sc(Nc2ccc(Oc3ccc(Cl)cc3)c(C(F)(F)F)c2)nc1-c1cccnc1 [Cmp 97, N-(4-(4-chlorophenoxy)-3-(trifluoromethyl)phenyl)-5-fluoro-4-(pyridin-3-yl)thiazol-2-amine] | < 1
CCc1ccc(Oc2ccc(Nc3nc(-c4cccnc4)c(F)s3)cc2C(F)(F)F)cc1 [Cmp 98, N-(4-(4-ethylphenoxy)-3-(trifluoromethyl)phenyl)-5-fluoro-4-(pyridin-3-yl)thiazol-2-amine] | < 1
N#Cc1ccc(Oc2ccc(Nc3nc(-c4cccnc4)c(F)s3)cc2C(F)(F)F)cc1 [Cmp 99, 4-(4-(5-fluoro-4-(pyridin-3-yl)thiazol-2-ylamino)-2-(trifluoromethyl)phenoxy)benzonitrile] | < 1
CCCCCCCCc1ccc(Nc2nc(-c3ccc(O)nc3)cs2)cc1C(F)(F)F [Cmp 100, 5-(2-(4-octyl-3-(trifluoromethyl)phenylamino)thiazol-4-yl)pyridin-2-ol] | < 1
CCCCCCCCc1ccc(Nc2nc(-c3ccc(O)nc3)c(F)s2)cc1C(F)(F)F [Cmp 101, 5-(5-fluoro-2-(4-octyl-3-(trifluoromethyl)phenylamino)thiazol-4-yl)pyridin-2-ol] | < 1
FC(F)(F)c1ccc(Nc2nc(-c3cccnc3)cs2)cc1Oc1ccccc1 [Cmp 102] | 1 to 10
FC(F)(F)c1cc(Nc2nc(-c3cccnc3)cs2)ccc1CCCOc1ccc(Cl)cc1 [Cmp 103, N-(4-(3-(4-chlorophenoxy)propyl)-3-(trifluoromethyl)phenyl)-4-(pyridin-3-yl)thiazol-2-amine] | < 1

Compound | EC50 [µM]
Fc1sc(Nc2ccc(CCCOc3ccc(Cl)cc3)c(C(F)(F)F)c2)nc1-c1cccnc1 [Cmp 104, N-(4-(3-(4-chlorophenoxy)propyl)-3-(trifluoromethyl)phenyl)-5-fluoro-4-(pyridin-3-yl)thiazol-2-amine] | < 1
CCCCCCc1ccc(Nc2nc(-c3cccnc3)cs2)cc1C(F)(F)F [Cmp 105, N-(4-hexyl-3-(trifluoromethyl)phenyl)-4-(pyridin-3-yl)thiazol-2-amine] | < 1
CCCCCCCCc1cc2cc(Nc3nc(-c4cccnc4)cs3)ccc2o1 [Cmp 106, N-(2-octylbenzofuran-5-yl)-4-(pyridin-3-yl)thiazol-2-amine] | < 1
Cc1ccc(CCCCOc2ccc(Nc3nc(-c4cccnc4)c(F)s3)cc2C(F)(F)F)cc1 [Cmp 107, 5-fluoro-4-(pyridin-3-yl)-N-(4-(4-p-tolylbutoxy)-3-(trifluoromethyl)phenyl)thiazol-2-amine] | < 1
Fc1sc(Nc2ccc(C(F)(F)F)c(Oc3ccccc3)c2)nc1-c1cccnc1 [Cmp 108, 5-fluoro-N-(3-phenoxy-4-(trifluoromethyl)phenyl)-4-(pyridin-3-yl)thiazol-2-amine] | < 1
Cc1ccc(CCCCOc2ccc(Nc3nc(-c4cccnc4)c(Cl)s3)cc2C(F)(F)F)cc1 [Cmp 109, 5-chloro-4-(pyridin-3-yl)-N-(4-(4-p-tolylbutoxy)-3-(trifluoromethyl)phenyl)thiazol-2-amine] | < 1
CCCCCCCCOc1c(F)cc(Nc2nc(-c3cccnc3)cs2)cc1F [Cmp 110, N-(3,5-difluoro-4-(octyloxy)phenyl)-4-(pyridin-3-yl)thiazol-2-amine] | < 1
CCCCCCCC(=O)c1ccc(Nc2nc(-c3cccnc3)cs2)cc1 [Cmp 111, 1-(4-(4-(pyridin-3-yl)thiazol-2-ylamino)phenyl)octan-1-one] | < 1
CCCCCCc1ccc(Nc2nc(-c3cccnc3)c(F)s2)cc1C(F)(F)F [Cmp 112] | < 1
CCCCCCc1ccc(Nc2nc(-c3cnc(OC)nc3)cs2)cc1C(F)(F)F [Cmp 113, N-(4-hexyl-3-(trifluoromethyl)phenyl)-4-(2-methoxypyrimidin-5-yl)thiazol-2-amine] | < 1
CCCCCCCCc1cc2ccc(Nc3nc(-c4cccnc4)cs3)cc2o1 [Cmp 114, N-(2-octylbenzofuran-6-yl)-4-(pyridin-3-yl)thiazol-2-amine] | < 1
CCCCCCCCc1cc2ccc(Nc3nc(-c4ccc(C)nc4)cs3)cc2o1 [Cmp 115, 4-(6-methylpyridin-3-yl)-N-(2-octylbenzofuran-6-yl)thiazol-2-amine] | < 1
Cc1ccc(OCCCCc2ccc(Nc3nc(-c4cccnc4)c(F)s3)cc2C(F)(F)F)cc1 [Cmp 116, 5-fluoro-4-(pyridin-3-yl)-N-(4-(4-(p-tolyloxy)butyl)-3-(trifluoromethyl)phenyl)thiazol-2-amine] | < 1
Cc1ccc(OCCCCc2ccc(Nc3nc(-c4cccnc4)cs3)cc2C(F)(F)F)cc1 [Cmp 117, 4-(pyridin-3-yl)-N-(4-(4-(p-tolyloxy)butyl)-3-(trifluoromethyl)phenyl)thiazol-2-amine] | < 1
Cc1ccc(OCCCc2ccc(Nc3nc(-c4cccnc4)cs3)cc2C(F)(F)F)cc1 [Cmp 118, 4-(pyridin-3-yl)-N-(4-(3-(p-tolyloxy)propyl)-3-(trifluoromethyl)phenyl)thiazol-2-amine] | < 1
CCCCCCCCOc1c(F)cc(Nc2nc(-c3cccnc3)c(F)s2)cc1F [Cmp 119, N-(3,5-difluoro-4-(octyloxy)phenyl)-5-fluoro-4-(pyridin-3-yl)thiazol-2-amine] | < 1

From patent US8183263B2 (priority 2007, dated 2012)
